According to ChEMBL document CHEMBL5046278, “Synthesis and Evaluation of Novel Tetrahydronaphthyridine CXCR4 Antagonists with Improved Drug-like Profiles” (J Med Chem, 2022):

Key:
[1] = target: Neuronal acetylcholine receptor subunit alpha-7 (Homo sapiens, UniProt P36544); test: Inhibition of alpha7 nicotinic acetylcholine receptor (unknown origin)
[2] = target: T1, Alpha-2A adrenergic receptor (Homo sapiens, UniProt P08913); test: Inhibition of alpha 2A adrenergic receptor (unknown origin)
T1 sequence (P08913 whole entry): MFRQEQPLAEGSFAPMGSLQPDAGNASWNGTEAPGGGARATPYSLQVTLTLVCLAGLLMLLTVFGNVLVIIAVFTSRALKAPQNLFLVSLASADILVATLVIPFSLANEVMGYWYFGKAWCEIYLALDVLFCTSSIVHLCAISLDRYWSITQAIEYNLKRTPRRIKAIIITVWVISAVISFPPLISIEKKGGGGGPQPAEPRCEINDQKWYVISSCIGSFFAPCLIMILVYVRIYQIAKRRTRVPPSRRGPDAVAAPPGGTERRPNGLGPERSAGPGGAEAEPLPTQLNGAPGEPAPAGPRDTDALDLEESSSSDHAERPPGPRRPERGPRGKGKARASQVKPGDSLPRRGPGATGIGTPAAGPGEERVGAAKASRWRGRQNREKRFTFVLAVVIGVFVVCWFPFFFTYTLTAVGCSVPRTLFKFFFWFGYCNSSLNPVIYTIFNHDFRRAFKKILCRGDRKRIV

[3] = Oral bioavailability in mouse at 3 mg/kg measured at 24 hrs by LC-MS/MS analysis; type: ADME, organism-based; conditions: in vivo
[4] = Half life in mouse at 3 mg/kg, iv measured after 8 hrs by LC-MS/MS analysis; type: ADME, organism-based; conditions: in vivo
[5] = AUC(0 to 8 h)in mouse plasma at 3 mg/kg, po measured at 24 hrs by LC-MS/MS analysis; type: ADME, organism-based; parameters: route oral, dose 3 mg/kg, time 24 hrs; conditions: in vivo
[6] = target: Kappa-type opioid receptor (Homo sapiens, UniProt P41145); test: Inhibition of kappa opioid receptor (unknown origin)
[7] = Volume of distribution in mouse at 3 mg/kg, measured at 24 hrs by LC-MS analysis; type: ADME, organism-based; conditions: in vivo
[8] = Oral bioavailability in mouse at 30 mg/kg measured at 24 hrs by LC-MS/MS analysis; type: ADME, organism-based; conditions: in vivo
[9] = AUC(0 to 8 h) in mouse plasma at 30 mg/kg, po measured at 24 hrs by LC-MS/MS analysis; type: ADME, organism-based; parameters: route oral, time 24 hrs, dose 30 mg/kg; conditions: in vivo
Mu-type opioid receptor = Mu-type opioid receptor (Homo sapiens, UniProt P35372); test: Inhibition of mu opioid receptor (unknown origin)
D(2) dopamine receptor = D(2) dopamine receptor (Homo sapiens, UniProt P14416); test: Inhibition of dopamine D2 receptor (unknown origin)
[10] = target: T2, Muscarinic acetylcholine receptor M2 (Homo sapiens, UniProt P08172); test: Inhibition of M2 mAChR receptor (unknown origin)
T2 sequence (P08172 whole entry): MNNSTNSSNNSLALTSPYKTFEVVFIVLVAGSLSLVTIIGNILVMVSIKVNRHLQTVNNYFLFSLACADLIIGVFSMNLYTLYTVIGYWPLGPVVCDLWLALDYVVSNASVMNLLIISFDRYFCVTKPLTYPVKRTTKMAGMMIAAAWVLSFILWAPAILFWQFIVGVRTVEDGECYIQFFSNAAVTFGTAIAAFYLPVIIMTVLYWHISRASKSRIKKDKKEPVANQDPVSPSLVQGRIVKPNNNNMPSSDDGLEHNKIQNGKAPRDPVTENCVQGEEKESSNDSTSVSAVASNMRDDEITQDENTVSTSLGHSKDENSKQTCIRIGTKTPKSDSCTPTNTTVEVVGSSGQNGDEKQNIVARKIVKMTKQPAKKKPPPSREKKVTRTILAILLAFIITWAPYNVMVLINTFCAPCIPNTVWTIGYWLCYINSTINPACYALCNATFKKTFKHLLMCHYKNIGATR

[11] = AUC(0 to 8 h) in mouse plasma at 3 mg/kg, iv measured at 24 hrs by LC-MS/MS analysis; type: ADME, organism-based; parameters: route intravenous, time 24 hrs, dose 3 mg/kg; conditions: in vivo
[12] = Drug concentration in mouse plasma at 30 mg/kg, po measured at 12 hrs by LC-MS analysis; type: ADME, organism-based
Cytochrome P450 2D6 = Cytochrome P450 2D6 (Homo sapiens, UniProt P10635); test: Inhibition of recombinant human CYP2D6 using AMMC as substrate preincubated for 30 mins followed by substrate addition measured after 45 mins by fluorescence based assay; type: ADME
[13] = test system: Human immunodeficiency virus 1; test: Antiviral activity against HIV-1 Z1800M E4.02 (R5) pseudovirus infected in human TZM-blcells assessed as reduction in viral infectivity measured after 48 hrs of postinfection by luminescence assay; type: functional, organism-based; conditions: Human immunodeficiency virus 1, Z1800M E4.02 (R5), TZM-bl
[14] = target: Voltage-gated inwardly rectifying potassium channel KCNH2 (Homo sapiens, UniProt Q12809); test: Inhibition of human ERG by [3H]]Astemizole binding assay; type: toxicity
[15] = Permeability of compound at pH 7.4 incubated for 4 hrs by PAMPA assay; type: ADME; conditions: read-out: permeability
[16] = Cytotoxicity against human TZM-bl cells assessed as reduction in cell viability incubated for 4 hrs by […] assay; type: toxicity, cell-based; conditions: read-out: TC50
[17] = Metabolic stability in rat liver microsomes assessed compound remaining measured after 10 mins in presence of NADPH; type: ADME, Microsome; conditions: read-out: Stability
[18] = Antagonist activity at human CXCR4 receptor expressed in CCRF-CEM cells assessed as inhibition of CXCL12-induced calcium release by calcium flux assay; type: cell-based
[19] = target: T3, Alpha-2C adrenergic receptor (Homo sapiens, UniProt P18825); test: Inhibition of alpha 2C adrenergic receptor (unknown origin)
T3 sequence (P18825 whole entry): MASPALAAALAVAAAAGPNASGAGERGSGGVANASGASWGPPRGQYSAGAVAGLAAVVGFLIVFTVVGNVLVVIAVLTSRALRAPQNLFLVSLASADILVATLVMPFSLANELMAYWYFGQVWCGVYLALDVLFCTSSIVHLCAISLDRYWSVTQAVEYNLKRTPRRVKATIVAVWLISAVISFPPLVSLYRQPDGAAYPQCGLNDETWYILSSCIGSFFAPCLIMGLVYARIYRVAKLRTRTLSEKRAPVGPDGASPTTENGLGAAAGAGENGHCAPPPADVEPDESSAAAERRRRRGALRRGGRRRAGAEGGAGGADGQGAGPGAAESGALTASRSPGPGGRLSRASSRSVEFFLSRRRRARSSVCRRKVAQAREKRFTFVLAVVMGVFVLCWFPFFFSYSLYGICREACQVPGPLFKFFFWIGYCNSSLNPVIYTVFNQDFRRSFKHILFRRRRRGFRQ

[20] = Permeability of compound at pH 5.5 incubated for 4 hrs by PAMPA assay; type: ADME; conditions: read-out: permeability
[21] = test system: Human immunodeficiency virus 1; test: Antiviral activity against HIV-1 NL4-3(X4) pseudovirus infected in human TZM-bl cells assessed as reduction in viral infectivity measured after 48 hrs of postinfection by luminescence assay; type: functional, organism-based; conditions: Human immunodeficiency virus 1, NL4-3(X4)
[22] = Metabolic stability in mouse liver microsomes assessed compound remaining measured after 10 mins in presence of NADPH; type: ADME, Microsome; conditions: read-out: Stability
[23] = Metabolic stability in human liver microsomes assessed compound remaining measured after 10 mins in presence of NADPH; type: ADME, Microsome; conditions: read-out: Stability
[24] = Antagonist activity at mAChR (unknown origin) expressed in CCRF-CEM cells assessed as inhibition of calcium release by calcium flux assay; type: cell-based; conditions: Homo sapiens

Sequence of Neuronal acetylcholine receptor subunit alpha-7 (P36544 whole entry): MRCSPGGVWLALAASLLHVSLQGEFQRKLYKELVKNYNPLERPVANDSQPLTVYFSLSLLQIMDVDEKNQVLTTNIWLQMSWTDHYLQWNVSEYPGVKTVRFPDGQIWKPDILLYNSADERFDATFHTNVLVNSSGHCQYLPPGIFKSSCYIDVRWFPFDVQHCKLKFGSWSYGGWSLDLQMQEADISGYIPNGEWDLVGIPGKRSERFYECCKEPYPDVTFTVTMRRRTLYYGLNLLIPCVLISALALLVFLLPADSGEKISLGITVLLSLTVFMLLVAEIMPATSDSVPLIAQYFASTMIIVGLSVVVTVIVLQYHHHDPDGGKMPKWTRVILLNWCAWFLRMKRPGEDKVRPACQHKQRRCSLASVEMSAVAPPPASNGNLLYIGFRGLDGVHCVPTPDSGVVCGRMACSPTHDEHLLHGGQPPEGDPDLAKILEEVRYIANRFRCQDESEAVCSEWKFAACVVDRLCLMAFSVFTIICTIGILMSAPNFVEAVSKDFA
Sequence of D(2) dopamine receptor (P14416 whole entry): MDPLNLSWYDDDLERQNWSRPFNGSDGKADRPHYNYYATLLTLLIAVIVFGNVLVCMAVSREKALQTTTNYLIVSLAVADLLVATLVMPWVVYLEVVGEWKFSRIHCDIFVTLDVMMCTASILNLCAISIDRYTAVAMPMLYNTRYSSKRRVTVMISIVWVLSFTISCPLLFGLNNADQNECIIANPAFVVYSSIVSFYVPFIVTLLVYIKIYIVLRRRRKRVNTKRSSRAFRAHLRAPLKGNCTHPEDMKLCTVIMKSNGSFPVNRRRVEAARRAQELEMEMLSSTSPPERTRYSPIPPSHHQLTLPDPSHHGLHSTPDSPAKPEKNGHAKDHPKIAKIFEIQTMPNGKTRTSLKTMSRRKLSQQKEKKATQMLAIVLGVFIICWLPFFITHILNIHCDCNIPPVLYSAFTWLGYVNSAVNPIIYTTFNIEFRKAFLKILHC
Sequence of Cytochrome P450 2D6 (P10635 whole entry): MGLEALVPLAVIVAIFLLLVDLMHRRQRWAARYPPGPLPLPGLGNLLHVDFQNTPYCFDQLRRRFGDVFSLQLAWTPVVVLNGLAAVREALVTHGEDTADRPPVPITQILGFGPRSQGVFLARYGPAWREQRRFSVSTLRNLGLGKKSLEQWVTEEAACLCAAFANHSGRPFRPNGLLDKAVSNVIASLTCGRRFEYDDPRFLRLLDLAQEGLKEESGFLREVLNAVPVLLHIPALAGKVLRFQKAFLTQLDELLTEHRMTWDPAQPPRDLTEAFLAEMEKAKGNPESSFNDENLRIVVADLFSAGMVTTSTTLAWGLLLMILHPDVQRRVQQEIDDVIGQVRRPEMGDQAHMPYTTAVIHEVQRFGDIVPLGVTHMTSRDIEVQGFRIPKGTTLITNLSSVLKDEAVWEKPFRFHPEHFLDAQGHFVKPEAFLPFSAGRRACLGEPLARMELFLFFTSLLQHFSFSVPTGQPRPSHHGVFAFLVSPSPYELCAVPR
Sequence of Mu-type opioid receptor (P35372 whole entry): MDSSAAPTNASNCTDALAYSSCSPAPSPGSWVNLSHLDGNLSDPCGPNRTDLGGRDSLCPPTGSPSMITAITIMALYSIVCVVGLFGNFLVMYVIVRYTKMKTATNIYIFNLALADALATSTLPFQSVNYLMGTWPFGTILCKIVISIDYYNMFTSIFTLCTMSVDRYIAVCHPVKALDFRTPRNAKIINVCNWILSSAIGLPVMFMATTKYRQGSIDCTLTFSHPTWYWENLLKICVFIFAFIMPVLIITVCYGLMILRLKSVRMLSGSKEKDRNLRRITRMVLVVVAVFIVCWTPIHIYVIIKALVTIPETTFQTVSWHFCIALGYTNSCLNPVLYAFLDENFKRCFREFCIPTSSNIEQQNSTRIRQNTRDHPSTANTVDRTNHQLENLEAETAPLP
Sequence of Voltage-gated inwardly rectifying potassium channel KCNH2 (Q12809 whole entry): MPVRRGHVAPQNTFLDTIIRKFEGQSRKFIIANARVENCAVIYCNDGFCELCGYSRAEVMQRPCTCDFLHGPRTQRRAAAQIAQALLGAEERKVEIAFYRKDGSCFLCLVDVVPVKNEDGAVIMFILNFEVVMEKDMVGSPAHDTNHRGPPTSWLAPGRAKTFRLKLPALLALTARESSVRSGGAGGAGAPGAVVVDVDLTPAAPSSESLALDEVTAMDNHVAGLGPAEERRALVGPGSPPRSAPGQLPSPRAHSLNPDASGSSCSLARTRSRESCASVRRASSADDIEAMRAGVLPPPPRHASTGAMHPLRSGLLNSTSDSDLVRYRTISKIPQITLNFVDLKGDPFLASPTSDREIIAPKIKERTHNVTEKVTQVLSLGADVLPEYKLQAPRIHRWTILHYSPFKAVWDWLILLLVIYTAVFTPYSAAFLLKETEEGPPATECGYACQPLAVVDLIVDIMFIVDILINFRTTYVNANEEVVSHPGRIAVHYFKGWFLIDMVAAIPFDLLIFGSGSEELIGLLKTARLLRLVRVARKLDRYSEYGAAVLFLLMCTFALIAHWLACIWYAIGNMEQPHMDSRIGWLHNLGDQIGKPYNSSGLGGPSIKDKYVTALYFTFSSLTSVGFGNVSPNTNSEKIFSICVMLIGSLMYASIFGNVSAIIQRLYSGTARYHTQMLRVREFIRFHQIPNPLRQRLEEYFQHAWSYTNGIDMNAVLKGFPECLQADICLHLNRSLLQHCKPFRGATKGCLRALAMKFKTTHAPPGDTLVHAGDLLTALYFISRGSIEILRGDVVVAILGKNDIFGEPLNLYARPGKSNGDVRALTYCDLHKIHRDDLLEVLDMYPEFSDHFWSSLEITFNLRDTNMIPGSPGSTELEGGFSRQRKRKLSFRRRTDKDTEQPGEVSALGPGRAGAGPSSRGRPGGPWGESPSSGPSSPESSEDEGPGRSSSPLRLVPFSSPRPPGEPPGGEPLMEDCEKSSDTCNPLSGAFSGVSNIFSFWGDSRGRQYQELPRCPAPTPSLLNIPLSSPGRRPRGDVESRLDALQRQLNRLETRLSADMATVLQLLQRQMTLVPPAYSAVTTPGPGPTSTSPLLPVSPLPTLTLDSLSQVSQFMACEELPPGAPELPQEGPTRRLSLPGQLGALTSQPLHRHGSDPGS
Sequence of Kappa-type opioid receptor (P41145 whole entry): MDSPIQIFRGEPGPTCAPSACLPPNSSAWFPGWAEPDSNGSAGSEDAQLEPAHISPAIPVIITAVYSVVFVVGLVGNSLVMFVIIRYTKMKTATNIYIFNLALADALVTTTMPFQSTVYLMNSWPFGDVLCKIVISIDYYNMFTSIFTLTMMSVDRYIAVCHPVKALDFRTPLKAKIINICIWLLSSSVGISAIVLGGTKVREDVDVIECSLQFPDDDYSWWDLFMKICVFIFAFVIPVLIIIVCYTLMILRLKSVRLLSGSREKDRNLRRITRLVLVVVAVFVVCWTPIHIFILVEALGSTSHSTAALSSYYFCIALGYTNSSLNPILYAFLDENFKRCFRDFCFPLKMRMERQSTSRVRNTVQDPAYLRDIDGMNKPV

| SMILES | IC50 [1] [µM] | IC50 [2] [µM] | IC50 [6] [µM] | IC50 (Mu-type opioid receptor) [µM] | IC50 (D(2) dopamine receptor) [µM] | IC50 [10] [µM] | IC50 (Cytochrome P450 2D6) [µM] | IC50 [13] [µM] | IC50 [14] [µM] | Papp at 4 h [15] [×10⁻⁶ cm/s] | CC50 at 4 h [16] [µM] | remaining at 10 min [17] [%] | IC50 [18] [µM] | IC50 [19] [µM] | Papp at 4 h [20] [×10⁻⁶ cm/s] | IC50 [21] [µM] | remaining at 10 min [22] [%] | remaining at 10 min [23] [%] | IC50 [24] [µM] | further results |
| --- | --- | --- | --- | --- | --- | --- | --- | --- | --- | --- | --- | --- | --- | --- | --- | --- | --- | --- | --- | --- |
| NCCCCN(Cc1nc2ccccc2[nH]1)[C@H]1CCCc2cccnc21 [MAVORIXAFOR] | > 30 | > 30 | > 30 | 12 | 4.1 | 7.5 |  |  |  |  |  |  |  |  |  |  |  |  |  | bioavailability [3]: 2.54%; half-life [4]: 3.09 h; AUC [5]: 35.1 h/ng/mL; Vd [7]: 32.2 L/kg; bioavailability [8]: 2.42%; AUC [9]: 101 h/ng/mL; AUC [11]: 415 h/ng/mL; concentration at 12 h [12]: 2.2 ng/mL |
| c1cnc2c(c1)CN[C@@H](CN(CCCCN1CCOCC1)[C@H]1CCCc3cccnc31)C2 | 11 | 0.62 | > 30 | > 30 | > 30 | > 30 | > 20 | > 10 | 11 | 83 | > 10 | 39 | 0.27 | 20 | 1.2 | > 0.03 | 20 | 100 | > 33 |  |
| c1cnc2c(c1)CN[C@@H](CN(CCCCNC1COC1)[C@H]1CCCc3cccnc31)C2 | > 30 | 24 | 10.1 | 21 | > 30 | > 17 | > 20 | > 10 | 11 | 30 | > 10 | 27 | 0.16 | 8.8 | 0.7 | 0.02 | 41 | 97 | > 33 |  |
| CN(CCCCN(C[C@H]1Cc2ncccc2CN1)[C@H]1CCCc2cccnc21)C1CCOCC1 | > 30 | 28 | 8.9 | > 30 | > 30 | > 30 | > 20 | > 10 | > 50 | 49 | > 10 | 64 | 0.11 | 8.4 | 1.5 | 0.006 | 51 | 100 | > 33 |  |
